The values below come from patent US10899738B2 (THE REGENTS OF THE UNIVERSITY OF MICHIGAN, priority 2016, dated 2021).

Sequence of menin protein (O00255 whole entry): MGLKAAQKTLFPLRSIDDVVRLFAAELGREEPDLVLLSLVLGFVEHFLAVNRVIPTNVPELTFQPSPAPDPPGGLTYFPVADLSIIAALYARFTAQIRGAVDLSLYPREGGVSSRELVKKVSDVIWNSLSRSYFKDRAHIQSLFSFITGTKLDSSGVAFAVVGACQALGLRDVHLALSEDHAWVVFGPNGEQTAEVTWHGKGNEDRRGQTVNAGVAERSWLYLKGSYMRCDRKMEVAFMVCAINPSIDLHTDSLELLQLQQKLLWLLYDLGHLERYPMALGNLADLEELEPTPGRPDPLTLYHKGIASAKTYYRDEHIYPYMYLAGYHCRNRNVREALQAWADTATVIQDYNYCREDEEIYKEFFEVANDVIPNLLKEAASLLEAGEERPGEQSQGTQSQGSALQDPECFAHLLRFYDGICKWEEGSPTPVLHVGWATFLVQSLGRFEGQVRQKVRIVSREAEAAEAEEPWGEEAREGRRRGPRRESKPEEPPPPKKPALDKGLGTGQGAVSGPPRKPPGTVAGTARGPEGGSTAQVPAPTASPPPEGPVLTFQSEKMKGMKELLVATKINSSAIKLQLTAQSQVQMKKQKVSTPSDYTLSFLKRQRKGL

The target of one test is menin protein (Homo sapiens (Human), UniProt O00255). In words: biochemical. Format: binding. The settings on record: FP competitive binding; menin protein 4 nM, FAM-MM2 probe 2 nM. Summed up:
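Test compounds displaced FAM-MM2 (2 nM) from 4 nM menin after 30 min equilibration at room temperature in PBS buffer containing bovine γ-globulin, 4% DMSO and Triton X-100. Binding was followed by fluorescence polarization. Competition curves were fitted by nonlinear regression to give IC50 and Ki.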
As to `C[C@H](NC(=O)O[C@@H]1CCC[C@H]1[C@@](C#N)(c1ccccc1)C1CCN(CC2CN(c3ccc(S(=O)(=O)c4ccncc4)cc3)C2)CC1)c1ccccc1` [compound 218, (1R,2S)-2-((R)-cyano(phenyl)(1-((1-(4-(pyridin-4-ylsulfonyl)phenyl)azetidin-3-yl)methyl)piperidin-4-yl)methyl)cyclopentyl ((S)-1-phenylethyl)carbamate], the “Menin Binding Affinity IC50 (μM)” value is listed as “No inhibition”. Turning to `CC(=O)O[C@@H]1CCC[C@H]1C(C#N)(c1ccccc1)C1CCN(CC#Cc2ccc(C#N)cc2)CC1` (mixture of isomers) [compound 387, rac-(1R,2S)-2-(cyano(1-(3-(4-cyanophenyl)prop-2-yn-1-yl)piperidin-4-yl)(phenyl)methyl)cyclopentyl acetate], the “Menin Binding Affinity IC50 (μM)” value is recorded as “No inhibition”. On to `CCN1Cc2ccccc2C(C2CCCC2)(C2CCN(S(=O)(=O)C3CN(c4ccc(S(=O)(=O)c5ccncc5)cc4)C3)CC2)C1` (centres unmarked) [compound 160, 4-cyclopentyl-2-ethyl-4-(1-((1-(4-(pyridin-4-ylsulfonyl)phenyl)azetidin-3-yl)sulfonyl)piperidin-4-yl)-1,2,3,4-tetrahydroisoquinoline], for which the “Menin Binding Affinity IC50 (μM)” value is given as “No inhibition”.

Turning to `CCN1Cc2ccccc2C(C2CCCC2)(C2CCN(S(=O)(=O)C3CN(c4ccc(C#N)cc4)C3)CC2)C1` (centres unmarked) [compound 159, 4-(3-((4-(4-cyclopentyl-2-ethyl-1,2,3,4-tetrahydroisoquinolin-4-yl)piperidin-1-yl)sulfonyl)azetidin-1-yl)benzonitrile], the “Menin Binding Affinity IC50 (μM)” value is recorded as “No inhibition”.

The test is the same for the next values; noted with them: FP competitive binding; menin protein 4 nM, FAM-MM2 probe 2 nM; read-out: Menin Binding Affinity IC50.
As for `Cn1cccc1S(=O)(=O)c1ccc(N2CC(CN3CCC(C4(C5CCCC5)NCCc5ccccc54)CC3)C2)cc1` (centres unmarked) [compound 98, 1-cyclopentyl-1-(1-((1-(4-((1-methyl-1H-pyrrol-2-yl)sulfonyl)phenyl)azetidin-3-yl)methyl)piperidin-4-yl)-1,2,3,4-tetrahydroisoquinoline], the IC50 was determined as 21 nM. The same measure, in the same setting: then `CNC(=O)O[C@@H]1CCC[C@H]1C(C#N)(c1ccccc1)C1CCN(CC2(C)CN(c3ccc(S(=O)(=O)c4cnn(C)c4)cc3)C2)CC1` (mixture of isomers) [compound 371, rac-(1R,2S)-2-(cyano(1-((3-methyl-1-(4-((1-methyl-1H-pyrazol-4-yl)sulfonyl)phenyl)azetidin-3-yl)methyl)piperidin-4-yl)(phenyl)methyl)cyclopentyl methylcarbamate], with 2100 nM. Still for that read-out and setting: then `CNC(=O)O[C@H]1CCC[C@@H]1C(Cn1ccnc1)(c1ccccc1)C1CCN(CC2CN(c3ccc(C(F)(F)F)cc3)C2)CC1` (mixture of isomers) [compound 421, rac-(1S,2R)-2-(2-(1H-imidazol-1-yl)-1-phenyl-1-(1-((1-(4-(trifluoromethyl)phenyl)azetidin-3-yl)methyl)piperidin-4-yl)ethyl)cyclopentyl methylcarbamate], with 4 nM; and `CN(C)C(=O)N[C@@H]1CCC[C@H]1C(C#N)(c1ccccc1)C1CCN(CC2CN(c3ccc(S(=O)(=O)c4ccncc4)cc3)C2)CC1` (mixture of isomers) [compound 276, rac-3-((1R,2S)-2-(cyano(phenyl)(1-((1-(4-(pyridin-4-ylsulfonyl)phenyl)azetidin-3-yl)methyl)piperidin-4-yl)methyl)cyclopentyl)-1,1-dimethylurea], with 1200 nM. On to `N#CC(c1ccccc1)(C1CCN(CC2CN(c3ccc(S(=O)(=O)c4ccncc4)cc3)C2)CC1)[C@@H]1CCC[C@H]1OC(N)=O` (mixture of isomers) [compound 212, rac-(1R,2S)-2-(cyano(phenyl)(1-((1-(4-(pyridin-4-ylsulfonyl)phenyl)azetidin-3-yl)methyl)piperidin-4-yl)methyl)cyclopentyl carbamate], for which the IC50 came out at 454 nM. Still for that read-out and setting: then `CC(=O)N1CCC[C@H]1C(C#N)(c1ccccc1)C1CCN(CCCOc2ccc(C#N)cc2)CC1` (stereo partly drawn) [compound 330, 4-(3-(4-(((S)-1-acetylpyrrolidin-2-yl)(cyano)(phenyl)methyl)piperidin-1-yl)propoxy)benzonitrile], with 111000 nM; and `CC(=O)O[C@@H]1CCC[C@H]1C(C#N)(c1ccccc1F)C1CCN(CCCOc2ccc(C#N)cc2)CC1` (mixture of isomers) [compound 309, rac-(1R,2S)-2-(cyano(1-(3-(4-cyanophenoxy)propyl)piperidin-4-yl)(2-fluorophenyl)methyl) cyclopentyl acetate], with 11400 nM. On to `CN(C)C(=O)O[C@H]1CCC[C@@H]1C(C#N)(c1ccccc1)C1CCN(CC2CN(c3ccc(S(=O)(=O)c4ccncc4)cc3)C2)CC1` (mixture of isomers) [compound 220, rac-(1S,2R)-2-(cyano(phenyl)(1-((1-(4-(pyridin-4-ylsulfonyl)phenyl)azetidin-3-yl)methyl)piperidin-4-yl)methyl)cyclopentyl dimethylcarbamate], for which the IC50 amounted to 261 nM.

As to `CS(=O)(=O)CCC(C#N)(c1ccccc1)C1CCN(CCCOc2ccc(C#N)cc2)CC1` (centres unmarked) [compound 303, 4-(3-(4-(1-cyano-3-(methylsulfonyl)-1-phenylpropyl)piperidin-1-yl)propoxy)benzonitrile], the IC50 stood at 75300 nM.

Regarding `CC(C)(C)S(=O)(=O)c1ccc(N2CC(CN3CCC(C4(C5CCCC5)NCCc5ccccc54)CC3)C2)cc1` (centres unmarked) [compound 87, 1-(1-((1-(4-(tert-butylsulfonyl)phenyl)azetidin-3-yl)methyl)piperidin-4-yl)-1-cyclopentyl-1,2,3,4-tetrahydroisoquinoline], the IC50 amounted to 122 nM. On the same count and under the same terms, then `CCN1Cc2ccccc2C(C2CCCC2)(C2CCN(CC3CN(c4ccc(S(=O)(=O)c5ccnc(C)c5)cc4)C3)CC2)C1` (centres unmarked) [compound 154, 4-cyclopentyl-2-ethyl-4-(1-((1-(4-((2-methylpyridin-4-yl)sulfonyl)phenyl)azetidin-3-yl)methyl)piperidin-4-yl)-1,2,3,4-tetrahydroisoquinoline], with 6 nM; and `CCS(=O)(=O)c1ccc(N2CC(CN3CCC(C4(CC(C)(C)C)NCCc5ccccc54)CC3)C2)cc1` (centres unmarked) [compound 248, 1-(1-((1-(4-(ethylsulfonyl)phenyl)azetidin-3-yl)methyl)piperidin-4-yl)-1-neopentyl-1,2,3,4-tetrahydroisoquinoline], with 800 nM; and `N#CC(Cc1ccncc1)(c1ccccc1)C1CCN(CC2CN(c3ccc(S(=O)(=O)c4ccncc4)cc3)C2)CC1` (centres unmarked) [compound 343, 2-phenyl-3-(pyridin-4-yl)-2-(1-((1-(4-(pyridin-4-ylsulfonyl)phenyl)azetidin-3-yl)methyl)piperidin-4-yl)propanenitrile], with 8800 nM. As for `C=CCC1(C2CCN(CCCOc3ccc(C#N)cc3)CC2)NCCc2ccccc21` (centres unmarked) [compound 293, 4-(3-(4-(1-allyl-1,2,3,4-tetrahydroisoquinolin-1-yl)piperidin-1-yl)propoxy)benzonitrile], the half-inhibitory concentration (IC50) stood at 2800 nM. Regarding `CNC(=O)O[C@@H]1CCC[C@H]1C(Cn1ccnc1)(c1ccccc1)C1CCN(CC2CN(c3ccc(S(=O)(=O)c4cnn(C)c4)cc3)C2)CC1` (mixture of isomers) [compound 239, rac-(1R,2S)-2-(2-(1H-imidazol-1-yl)-1-(1-((1-(4-((1-methyl-1H-pyrazol-4-yl)sulfonyl)phenyl)azetidin-3-yl)methyl)piperidin-4-yl)-1-phenethyl)cyclopentyl methylcarbamate], the IC50 turned out to be 46 nM. `Cn1cc(S(=O)(=O)c2ccc(N3CC(CN4CCC(C(CN5CCCC5)(C5=CCCC5)c5ccccc5)CC4)C3)cc2)cn1` (centres unmarked) [compound 357, 4-(1-(cyclopent-1-en-1-yl)-1-phenyl-2-(pyrrolidin-1-yl)ethyl)-1-((1-(4-((1-methyl-1H-pyrazol-4-yl)sulfonyl)phenyl)azetidin-3-yl)methyl)piperidine]: the IC50 was determined as 32 nM. Consider `COC(=O)N[C@@H]1CCC[C@H]1C(C#N)(c1ccccc1)C1CCN(CC2CN(c3ccc(S(=O)(=O)c4ccccc4)cc3)C2)CC1` (mixture of isomers) [compound 348, methyl (rac-(1R,2S)-2-(cyano(phenyl)(1-((1-(4-(phenylsulfonyl)phenyl)azetidin-3-yl)methyl)piperidin-4-yl)methyl)cyclopentyl) carbamate], for which the IC50 came to 819 nM. On to `CCC(=O)O[C@@H]1CCC[C@H]1C(C#N)(c1ccccc1)C1CCN(CC2CN(c3ccc(S(=O)(=O)c4ccncc4)cc3)C2)CC1` (mixture of isomers) [compound 196, rac-(1R,2S)-2-(cyano(phenyl)(1-((1-(4-(pyridin-4-ylsulfonyl)phenyl)azetidin-3-yl)methyl)piperidin-4-yl)methylcyclopentyl propionate], for which the IC50 was determined as 1000 nM. For the molecule `CC(C)C(=O)N1CCCCC1C1(C2CCN(CCCOc3ccc(C#N)cc3)CC2)CN(C)Cc2ccccc21` (centres unmarked) [compound 299, 4-(3-(4-(4-(1-isobutyrylpiperidin-2-yl)-2-methyl-1,2,3,4-tetrahydroisoquinolin-4-yl)piperidin-1-yl)propoxy)benzonitrile], the IC50 came to 16800 nM. For the molecule `CNC(=O)O[C@@H]1CCC[C@H]1C(C#N)(c1ccccc1)C1CCN(CC2CN(c3ccc(C(=O)OC)cc3)C2)CC1` (mixture of isomers) [compound 374, methyl rac-4-(3-((4-(cyano((1S,2R)-2-((methylcarbamoyl)oxy)cyclopentyl)(phenyl)methyl)piperidin-1-yl)methyl)azetidin-1-yl)benzoate], the IC50 stood at 4700 nM. For `N#Cc1cc2cc(CN3CCC(C4(C5CCCC5)NCCc5ccccc54)CC3)ccc2[nH]1` (centres unmarked) [compound 114, 5-((4-(1-cyclopentyl-1,2,3,4-tetrahydroisoquinolin-1-yl)piperidin-1-yl)methyl)-1H-indol-2-carbonitrile], the IC50 was determined as 32600 nM. As for `CC(=O)OC[C@@H]1CCC[C@H]1C(C#N)(c1ccccc1)C1CCN(CC2CN(c3ccc(S(=O)(=O)C4CC4)cc3)C2)CC1` (mixture of isomers) [compound 262, rac-((1R,2R)-2-(cyano(1-((1-(4-(cyclopropylsulfonyl)phenyl)azetidin-3-yl)methyl)piperidin-4-yl)(phenyl)methyl)cyclopentyl) methyl acetate], the IC50 amounted to 6900 nM.
